Experimental data: US20090275514A1, “USE OF CALMODULIN KINASE II INHIBITORS TO TREAT OR PREVENT HEART MUSCLE INFLAMMATION” (priority 2008, published 2009)

Legend:
[1] = test system: Cfb expression in neonatal cardiomyocytes; assay: LPS-induced Cfb expression in cultured neonatal cardiomyocytes (qRT-PCR); assay type: cell-based, mouse
Description: (§1) All animal experiments were done in compliance with the “Guiding Principles for the Care and Use of Laboratory Animals.” Mouse neonatal cardiac myocytes were isolated from 1 to 3-day-old newborn B6D2/F1 mice according to an established protocol. Hearts were dissected and incubated with F-10 nutrient medium, containing 140 μg/ml of collagenase type-2 (Sigma) and 440 μg/ml pancreatin (Sigma) until cells were dissociated. The cells were then washed, resuspended in 1:1 mix of Dulbecco's minimal Eagle's medium (DMEM) and F10 nutrient mix with 5% each of equine and bovine calf serum. These cells were pre-plated in tissue culture dishes for 1 h to allow for attachment of nonmyocytes. The resulting non-adherent myocytes were plated on fibronectin-coated (Sigma) tissue culture dishes. […]
(§2) Total RNA was isolated from mouse heart, liver, isolated adult cardiomyocytes, or cultured neonatal cardiomyocytes using Qiagen RNA isolation kit. RNA samples were quantified by determining A260 in capillary cuvettes (Gene Machine, Pharmacia). […]
(§3) For SYBR Green quantitative real-time PCR, 1 μl of reverse transcription reaction was mixed with 10 pmoles each specific primer and 12.5 μl SYBR PCR Master Mix (BioRad). […] The threshold cycle (CT) was determined by the icycler software, and quantification of relative mRNA levels was performed by ΔΔCT method.

[2] = test system: Cfb expression in neonatal cardiomyocytes; assay: TNFα-induced Cfb expression in cultured neonatal cardiomyocytes (qRT-PCR); assay type: cell-based, mouse; conditions: RNA after 12 h
Description: as §1, §2, §3

[3] = test system: gene expression in infarcted hearts; assay: cDNA microarray of infarcted hearts (CaMKII-regulated genes); assay type: in vivo, mouse; conditions: three weeks after MI; compared to infarcted AC3-C hearts; 8,600 genes on array
Description: (§4) Mouse hearts were infarcted by opening the thoracic cavity and placing a ligature on the left descending coronary artery, as described (3). Both male and female mice were infracted, and three-week post-infarction, RNA was isolated from cardiac tissue using RNeasy kit (Qiagen). Hearts were harvested one week after MI surgery for protein studies. Gene expression profiles of pooled RNA from at least five hearts of each gender were determined from cDNA microarrays containing 8600 elements derived from clones isolated from normalized cDNA libraries or purchased from ResGen (Invitrogen) as described previously (52). Differential expression values were calculated as the ratio of the median of background-subtracted fluorescent intensity of the experimental RNA to the median of background-subtracted fluorescent intensity of the control RNA. […] For the analyses, the results from both genders were compiled.

[4] = test system: CFB protein in infarcted hearts; assay: CFB protein in hearts after myocardial infarction (immunoblotting); assay type: in vivo, mouse; conditions: one week following MI; transgenic hearts compared to WT
Description: as §4
Tissue samples were homogenized in modified RIPA buffer (50 mM Hepes, pH 7.5; 150 mM NaCl; 5 mM EDTA; 1% v/v NP-40 and 0.5% w/v deoxycholate) containing mixture of protease and phosphatase inhibitors. […] Protein bands were detected using ECL reagent (Lumi-Light, Roche), and loading was routinely monitored by Coomassie staining of the blots after antibody probing. For quantification, QuantityOne software (BioRad) was used.

[5] = neonatal cardiomyocytes from transgenic mice, compared to WT cells

Compound	induction of Cfb mRNA by LPS ([1]; WT neonatal cardiomyocytes, water-soluble KN-93 (2.5 μM) added an hour prior to LPS 10 μg/ml, RNA after 12 h)	induction of Cfb expression by TNFα ([2]; neonatal cardiomyocytes, TNFα (100 pg/ml) with water-soluble KN-93 (2.5 μM))	induction of Cfb mRNA by LPS in cardiomyocytes expressing the peptide [1, 5]	number of genes with reduced expression in infarcted hearts [3] [genes]	induction of Cfb by TNFα in cardiomyocytes expressing the peptide [2, 5]	CFB protein in heart after MI [4]
COc1ccc(S(=O)(=O)N(CCO)c2ccccc2CN(C)CC=Cc2ccc(Cl)cc2)cc1 [KN-93]	significantly (P<0.001) attenuated induction of Cfb mRNA	significantly blunted	–	–	–	–
AC3-I: CaMKII-inhibitory peptide of SEQ ID NO:16, transgenically expressed in cardiomyocytes (KKALHRQEAVDCL)	–	–	strong attenuation of Cfb induction	88	significantly lower	Significantly reduced CFB protein
